This note sets out measurements from patent publication US7070983B2, “Mutant Pseudomonas putida strains and methods of use thereof” (priority 2003, dated 2006).

Common to all, as to format: cell-based, Pseudomonas putida
One test relates to KH146-2. Kind of test: Organic solvent tolerance, growth in saturated LBH medium.
The next test deals with Str and Rif mutants. The test is described as above.
Test [1] deals with 4HBA-tolerant Str, Gen and Rif mutants of P. putida KH146-2. Conditions: Str mutants and Rif mutants tested; in words. On the procedure:
(§1) Pseudomonas putida KH146-2 was originally isolated from soil for the capability of growing in the presence of 4-hydroxybenzoate (Chen et al., ((1998) Res Communs Biochem and Cell & Mol Biol 2: 253–274)). HBM medium consists of 50 mM sodium potassium phosphate buffer (pH6.8), 0.1% (NH4)2SO4 and Hutner's base. Hutner's base cotained (per liter) nitrilotriacetic acid, 200 mg; CaCl2.2H2O, 67 mg; (NH4)6Mo7O24.4H2O, 185 μg; MgSO4, 289 mg; EDTA, 2.5 mg; ZnSO4.7H2O, 11 mg; FeSO4.7H2O, 7 mg; MnSO4.H2O, 1.5 mg; CuSO4.5H2O, 390 μg; Co(NO3)2.6H2O, 250 μg, and Na2B4O7.10H2O, 180 μg. LB medium contains 1% tryptone, 0.5% yeast extract, and 1% NaCl (adjusted pH 6.8). LBH medium contains 1% tryptone and 0.5% yeast extract in HBM medium. The bacteria were grown at 30° C. in a shaker at 200 rpm. For tolerance tests, HBM or LBH agar plates containing serially increasing concentrations of an organic chemical were employed. Routinely, 20 to 40 bacterial strains were spot-transplanted with the aid of tooth pick on an agar plate, followed by incubation at 30° C. for 3 days.
Using several strains randomly chosen as representatives of 4HBA-tolerant mutants, we examined the tolerance level to various organic compounds. […] Tolerance levels to other organic compounds were also examined.

The test system of test [2] is P. putida strain no. 15 (Rif mutant). As to the kind of experiment: Tolerance test (MIC) on agar plates. The settings on record: LBH medium. How it is done: as §1
In test [3] the test system is P. putida strain no. 9 (Str mutant). Kind of test: Tolerance test (MIC) on agar plates. Conditions: LBH medium. On the procedure: as §1
Test [4] deals with P. putida strain no. 14 (Rif mutant). Kind of test: Tolerance test (MIC) on agar plates. The settings on record: LBH medium. How it is done: as §1
The test system of test [5] is P. putida strain no. 12 (Gen mutant). Kind of test: Tolerance test (MIC) on agar plates. Conditions: LBH medium. On the procedure:
as §1

Test [6] concerns P. putida strain no. 17 (Rif mutant). Kind of test: Tolerance test (MIC) on agar plates. Conditions: LBH medium. How it is done: as §1
Test [7] has as its system P. putida strain no. 3 (Str mutant). Kind of test: Tolerance test (MIC) on agar plates. Conditions: LBH medium. How it is done:
as §1

Test [8] has as its system P. putida wild-type KH146-2. Conditions: LBH medium, 30° C., 3 days. On the procedure:
as §1

Setting [9] is: 3% MeOH-LBH medium saturated with toluene.
The mark [10] stands for this setting: LBH medium containing saturated concentrations of m-xylene.

For the molecule `Cc1ccccc1` [toluene], the growth result in the test on KH146-2 (setting [9]) is reported as “somewhat retarded”; with Str and Rif mutants (setting [9]) it was “grew normally”.

As to `O=C(O)c1cccc(I)c1` [3-iodobenzoate], in test [1], the “Tolerance of mutants relative to wild-type” value is “increased tolerance”.

Take `O=C(O)c1ccc(O)c(Br)c1` [3-bromo-4-hydroxybenzoate]: the “Tolerance of mutants relative to wild-type” value in [1] is on record as “increased tolerance”.

For the molecule `O=C(O)c1cccc(O)c1` [3HBA, 3-hydroxybenzoate], the “Tolerance (MIC)” value in test [2] is recorded as 1.9 ± 0.2%; in [3], 1.8 ± 0.1%; in test [4] it was 1.9 ± 0.1%; in test [5], 1.9 ± 0.2%; in test [6], 1.8 ± 0.3%; in [7], 1.8 ± 0.2%. For the same molecule, the “Tolerance (MIC)” value in [8] came out at 1.4 ± 0.1%. Moreover, the “Tolerance of mutants relative to wild-type” value in test [1] is “modest increment of tolerance”.

`O=C(O)c1ccc(F)cc1` [4-fluorobenzoate]: the “Tolerance of mutants relative to wild-type” value in [1] is “increased tolerance”.

Consider norvalerate, for which the “Tolerance of mutants relative to wild-type” value in test [1] was “increased tolerance”.

As for isonicotinate, in [1], the “Tolerance of mutants relative to wild-type” value is “increased tolerance”.

For `CC(C)C(=O)O` [isobutyrate], the “Tolerance of mutants relative to wild-type” value in test [1] was “increased tolerance”.

In the case of `CC(C)CC(=O)O` [isovalerate], in [1], the “Tolerance of mutants relative to wild-type” value is reported as “increased tolerance”.

Consider `Cc1cccc(C)c1` [m-xylene], for which the growth result in the test with KH146-2 (setting [10]) is “inhibited almost completely”; in the test on Str and Rif mutants (setting [10]), “grew”.

`O=C(O)c1ccccc1I` [2-iodobenzoate]: the “Tolerance of mutants relative to wild-type” value in [1] is “increased tolerance”.

In the case of `O=C(O)c1ccccc1O` [2HBA, 2-hydroxybenzoate], the “Tolerance (MIC)” value in test [2] came to 0.8 ± 0.1%; in [3], 0.8 ± 0.1%; in [4], 0.8 ± 0.1%; in test [5] it was 0.8 ± 0.1%; in test [6], 0.7 ± 0.1%; in test [7] it was 0.9 ± 0.1%. Besides, the “Tolerance (MIC)” value in test [8] is reported as 0.8 ± 0.1%. Further, in [1], the “Tolerance of mutants relative to wild-type” value is “slight or no increase of tolerance”.

In the case of `O=C(O)c1ccccc1` [BA, benzoic acid], the “Tolerance (MIC)” value in test [2] is recorded as 1.0 ± 0.1%; in test [3] it was 0.9 ± 0.1%; in [4], 1.1 ± 0.1%; in test [5], 1.0 ± 0.1%; in [6] it was 1.1 ± 0.1%; in test [7], 1.0 ± 0.1%. Further, the “Tolerance (MIC)” value in test [8] was determined as 0.8 ± 0.2%. In addition, in test [1], the “Tolerance of mutants relative to wild-type” value was “slight or no increase of tolerance”.

Take `O=C(O)c1cccc(Cl)c1` [3CB, 3-chlorobenzoate]: the “Tolerance (MIC)” value in test [2] is on record as 1.3 ± 0.2%; in test [3] it was 1.0 ± 0.2%; in test [4], 1.1 ± 0.2%; in test [5], 1.1 ± 0.2%; in test [6] it was 1.2 ± 0.1%; in [7], 1.1 ± 0.2%. Further, in test [8], the “Tolerance (MIC)” value was determined as 0.9 ± 0.1%. Moreover, in [1], the “Tolerance of mutants relative to wild-type” value is “slight or no increase of tolerance”.

As for `O=C(O)c1ccccc1Cl` [2CB, 2-chlorobenzoate], the “Tolerance (MIC)” value in test [2] stood at 2.0 ± 0.2%; in test [3], 1.7 ± 0.2%; in [4], 1.9 ± 0.2%; in test [5], 1.9 ± 0.3%; in [6], 2.1 ± 0.2%; in test [7] it was 1.9 ± 0.2%. The “Tolerance (MIC)” value in [8] is listed as 1.5 ± 0.2%. The “Tolerance of mutants relative to wild-type” value in [1] is given as “modest increment of tolerance”.

In the case of `O=C(O)c1ccc(Cl)cc1O` [4-chlorosalicylate], the “Tolerance of mutants relative to wild-type” value in [1] is listed as “increased tolerance”.

In the case of `O=C(O)c1cc(Cl)ccc1O` [5-chlorosalicylate], the “Tolerance of mutants relative to wild-type” value in [1] is “increased tolerance”.
